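Compound exposure: 48 hours, 5 concentrations, 96-well plates. GI50: concentration for 50% inhibition of growth. TGI marks complete inhibition of growth.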
Legend:
Experiment in all cases: NCI-60 cell line screen, 48 h
EKVX NSCLC = system: EKVX NSCLC
CCRF-CEM leukemia = system: CCRF-CEM leukemia
A498 renal = system: A498 renal
SNB-75 CNS = system: SNB-75 CNS
NCI-H460 lung = system: NCI-H460 lung
PC-3 prostate = system: PC-3 prostate
MDA-N = system: MDA-N
NCI-H226 lung = system: NCI-H226 lung
RXF 393 renal = system: RXF 393 renal
SNB-78 CNS = system: SNB-78 CNS

CCCCCCSc1nc(COC(=O)NC)c(COC(=O)NC)n1C
TGI (EKVX NSCLC): > 100 µM
TGI (CCRF-CEM leukemia): > 100 µM
TGI (A498 renal): > 100 µM
TGI (SNB-75 CNS): > 100 µM
TGI (NCI-H460 lung): > 100 µM
TGI (PC-3 prostate): > 100 µM
TGI (MDA-N): > 100 µM
TGI (NCI-H226 lung): > 100 µM

CCCc1n(Cc2ccc3ccccc3n2)cc[n+]1Cc1ccc2ccccc2n1
GI50 (EKVX NSCLC): 5.67 µM
TGI (EKVX NSCLC): > 79.6 µM
GI50 (CCRF-CEM leukemia): 2.72 µM
TGI (CCRF-CEM leukemia): 28.3 µM
GI50 (A498 renal): 7.21 µM
TGI (A498 renal): 35 µM
GI50 (SNB-75 CNS): 1.46 µM
TGI (SNB-75 CNS): 8.7 µM
GI50 (NCI-H460 lung): 2.44 µM
TGI (NCI-H460 lung): 11.5 µM
GI50 (RXF 393 renal): 9.08 µM
TGI (RXF 393 renal): 35.4 µM
GI50 (PC-3 prostate): 1.85 µM
TGI (PC-3 prostate): 14.7 µM
GI50 (NCI-H226 lung): 3.26 µM
TGI (NCI-H226 lung): 26.2 µM

CN1CCc2cc3c4cc2C1Cc1ccc(cc1)Oc1cc(ccc1O)CC1c2c(cc(O)c(c2O4)O3)CCN1C (centres undefined)
TGI (EKVX NSCLC): 25.8 µM
TGI (CCRF-CEM leukemia): 14 µM
TGI (SNB-75 CNS): 65.6 µM
TGI (SNB-78 CNS): 21.3 µM
TGI (NCI-H460 lung): 4.01 µM
TGI (RXF 393 renal): 13.2 µM
TGI (NCI-H226 lung): 4.97 µM

COc1cc(/C=C/c2ccccn2)cc(OC)c1OC
TGI (EKVX NSCLC): > 10 µM
TGI (CCRF-CEM leukemia): > 10 µM
TGI (A498 renal): > 10 µM
TGI (SNB-75 CNS): > 10 µM
TGI (NCI-H460 lung): > 10 µM
TGI (RXF 393 renal): > 10 µM
TGI (PC-3 prostate): > 10 µM
TGI (MDA-N): > 10 µM
TGI (NCI-H226 lung): > 10 µM

Cc1c(O)c(Br)c(C)c(O)c1Br (tested in a mixture with another compound)
TGI (CCRF-CEM leukemia): 0.807 µM
TGI (A498 renal): 29 µM
TGI (SNB-75 CNS): 29.3 µM
TGI (NCI-H460 lung): 16.1 µM
TGI (RXF 393 renal): 3.33 µM
TGI (PC-3 prostate): 4.23 µM
TGI (MDA-N): 3.26 µM
TGI (NCI-H226 lung): 14.8 µM

Oc1cccc(-c2nc(-c3ccccc3)[nH]c2-c2ccncc2)c1
GI50 (EKVX NSCLC): > 25 µM
TGI (EKVX NSCLC): > 25 µM
GI50 (CCRF-CEM leukemia): 17.1 µM
TGI (CCRF-CEM leukemia): > 25 µM
GI50 (A498 renal): 6.07 µM
TGI (A498 renal): 17.4 µM
GI50 (SNB-75 CNS): 9.93 µM
TGI (SNB-75 CNS): > 23.7 µM
GI50 (NCI-H460 lung): 11.6 µM
TGI (NCI-H460 lung): > 25 µM
GI50 (RXF 393 renal): 5 µM
TGI (RXF 393 renal): 14.7 µM
GI50 (PC-3 prostate): > 20.8 µM
TGI (PC-3 prostate): > 25 µM
GI50 (NCI-H226 lung): > 19 µM
TGI (NCI-H226 lung): > 25 µM

O=C(CSc1ncc(-c2ccccc2)n1-c1ccccc1)Nc1ccc(-c2nc3ccccc3s2)cc1
GI50 (EKVX NSCLC): 8.82 µM
TGI (EKVX NSCLC): > 100 µM
GI50 (CCRF-CEM leukemia): > 100 µM
TGI (CCRF-CEM leukemia): > 100 µM
GI50 (A498 renal): 39.7 µM
TGI (A498 renal): > 100 µM
GI50 (SNB-75 CNS): 11.1 µM
TGI (SNB-75 CNS): 29.6 µM
GI50 (NCI-H460 lung): 3.61 µM
TGI (NCI-H460 lung): > 100 µM
GI50 (RXF 393 renal): 11.2 µM
TGI (RXF 393 renal): 47.4 µM
GI50 (PC-3 prostate): > 100 µM
TGI (PC-3 prostate): > 100 µM
GI50 (NCI-H226 lung): 43.3 µM
TGI (NCI-H226 lung): > 100 µM

NCC1(N2CCOCC2)C2CCCC21CNc1ccccc1 (centres undefined)
TGI (CCRF-CEM leukemia): > 100 µM
TGI (SNB-75 CNS): > 100 µM
TGI (SNB-78 CNS): > 100 µM
TGI (NCI-H460 lung): > 100 µM
TGI (RXF 393 renal): > 100 µM

COC1=CC2CCN3Cc4cc5c(cc4C(C1O)C23)OCC5 (centres undefined)
GI50 (EKVX NSCLC): 4.66 µM
TGI (EKVX NSCLC): 32.6 µM
TGI (CCRF-CEM leukemia): > 100 µM
GI50 (A498 renal): 17.7 µM
TGI (A498 renal): 98.8 µM
GI50 (SNB-75 CNS): 1.24 µM
TGI (SNB-75 CNS): 6.24 µM
GI50 (NCI-H460 lung): 2.1 µM
TGI (NCI-H460 lung): > 100 µM
GI50 (RXF 393 renal): 2.74 µM
TGI (RXF 393 renal): 16.7 µM
GI50 (PC-3 prostate): 2.67 µM
TGI (PC-3 prostate): > 47 µM
GI50 (NCI-H226 lung): 1.72 µM
TGI (NCI-H226 lung): 7.6 µM

COc1c2ccccc2c(O)c2c(=O)ccn(C)c12
GI50 (EKVX NSCLC): 17.9 µM
TGI (EKVX NSCLC): 79.2 µM
GI50 (CCRF-CEM leukemia): 26.8 µM
TGI (CCRF-CEM leukemia): > 100 µM
GI50 (A498 renal): 10.7 µM
TGI (A498 renal): 41.6 µM
GI50 (SNB-75 CNS): 12.9 µM
TGI (SNB-75 CNS): > 53.9 µM
GI50 (NCI-H460 lung): 3.51 µM
TGI (NCI-H460 lung): 17 µM
GI50 (RXF 393 renal): 5.27 µM
TGI (RXF 393 renal): 20.3 µM
GI50 (PC-3 prostate): 15 µM
TGI (PC-3 prostate): 57.6 µM
GI50 (NCI-H226 lung): 7.49 µM
TGI (NCI-H226 lung): > 49.9 µM

CC[C@@]1(O)C(=O)NCc2c1cc1n(c2=O)Cc2cc3c(NC(C)=O)cccc3nc2-1
GI50 (EKVX NSCLC): > 100 µM
TGI (EKVX NSCLC): > 100 µM
GI50 (CCRF-CEM leukemia): > 100 µM
TGI (CCRF-CEM leukemia): > 100 µM
GI50 (A498 renal): > 100 µM
TGI (A498 renal): > 100 µM
GI50 (SNB-75 CNS): > 100 µM
TGI (SNB-75 CNS): > 100 µM
GI50 (NCI-H460 lung): > 100 µM
TGI (NCI-H460 lung): > 100 µM
GI50 (RXF 393 renal): > 100 µM
TGI (RXF 393 renal): > 100 µM
GI50 (PC-3 prostate): > 100 µM
TGI (PC-3 prostate): > 100 µM
GI50 (MDA-N): > 100 µM
TGI (MDA-N): > 100 µM
GI50 (NCI-H226 lung): > 100 µM
TGI (NCI-H226 lung): > 100 µM

CN1CCN(c2ccc(Nc3ncc4cc5n(c4n3)C3(CCCCC3)CNC5=O)nc2)CC1
GI50 (EKVX NSCLC): 2.14 µM
TGI (EKVX NSCLC): 14.1 µM
GI50 (CCRF-CEM leukemia): 0.203 µM
TGI (CCRF-CEM leukemia): 3.6 µM
GI50 (A498 renal): 0.17 µM
TGI (A498 renal): 1.8 µM
GI50 (SNB-75 CNS): 1.41 µM
TGI (SNB-75 CNS): 4.54 µM
GI50 (NCI-H460 lung): 1.39 µM
TGI (NCI-H460 lung): 10.6 µM
GI50 (RXF 393 renal): 1.32 µM
TGI (RXF 393 renal): 3.71 µM
GI50 (PC-3 prostate): 0.627 µM
TGI (PC-3 prostate): 28.9 µM
GI50 (NCI-H226 lung): 1.27 µM
TGI (NCI-H226 lung): 11.3 µM

COC(=O)C1(O)c2ccccc2N=C2C1CCN2C (centres undefined)
TGI (EKVX NSCLC): > 100 µM
TGI (CCRF-CEM leukemia): > 100 µM
TGI (A498 renal): > 100 µM
TGI (SNB-75 CNS): 87.8 µM
TGI (SNB-78 CNS): > 100 µM
TGI (NCI-H460 lung): > 100 µM
TGI (RXF 393 renal): > 100 µM

COC(CC1(OC)OC(=O)C=C1N)OC (centres undefined)
TGI (EKVX NSCLC): > 100 µM
TGI (CCRF-CEM leukemia): > 100 µM
TGI (A498 renal): > 100 µM
TGI (SNB-75 CNS): > 100 µM
TGI (SNB-78 CNS): > 100 µM
TGI (NCI-H460 lung): > 100 µM
TGI (NCI-H226 lung): > 100 µM

COc1cc(NC(=O)c2ccccc2Nc2ccnc(C(F)(F)F)c2)cc(OC)c1OC
GI50 (EKVX NSCLC): 48.3 µM
TGI (EKVX NSCLC): > 100 µM
GI50 (CCRF-CEM leukemia): 50.7 µM
TGI (CCRF-CEM leukemia): > 100 µM
GI50 (A498 renal): 26.6 µM
TGI (A498 renal): > 100 µM
GI50 (SNB-75 CNS): 34.8 µM
TGI (SNB-75 CNS): > 100 µM
GI50 (NCI-H460 lung): 69.6 µM
TGI (NCI-H460 lung): > 100 µM
GI50 (RXF 393 renal): > 100 µM
TGI (RXF 393 renal): > 100 µM
GI50 (PC-3 prostate): 35.3 µM
TGI (PC-3 prostate): > 100 µM
GI50 (NCI-H226 lung): 77.7 µM
TGI (NCI-H226 lung): > 100 µM

CNCCN(C)Cc1cn[nH]c1-c1ccc(OC2CC(OCCC3CCOCC3)C2)cc1 (centres undefined)
GI50 (EKVX NSCLC): > 77.7 µM
TGI (EKVX NSCLC): > 100 µM
GI50 (CCRF-CEM leukemia): > 100 µM
TGI (CCRF-CEM leukemia): > 100 µM
GI50 (A498 renal): > 57.1 µM
TGI (A498 renal): > 100 µM
GI50 (SNB-75 CNS): 38.2 µM
TGI (SNB-75 CNS): > 100 µM
GI50 (NCI-H460 lung): 97.9 µM
TGI (NCI-H460 lung): > 100 µM
GI50 (RXF 393 renal): 48.5 µM
TGI (RXF 393 renal): > 100 µM
GI50 (PC-3 prostate): > 63.4 µM
TGI (PC-3 prostate): > 100 µM
GI50 (NCI-H226 lung): > 100 µM
TGI (NCI-H226 lung): > 100 µM

COC(=O)C1(C)CCCC2(C)c3cc(OC)ccc3C(=O)C(Br)C12 (centres undefined)
TGI (EKVX NSCLC): > 10 µM
TGI (CCRF-CEM leukemia): 6.59 µM
TGI (A498 renal): > 10 µM
TGI (NCI-H460 lung): > 10 µM
TGI (RXF 393 renal): > 10 µM
TGI (PC-3 prostate): > 10 µM
TGI (MDA-N): > 10 µM
TGI (NCI-H226 lung): > 10 µM

O=c1c2cc(O)c(O)cc2oc2cc(O)c(C3OC(CO)C(O)C(O)C3O)c(O)c12 (centres undefined)
TGI (EKVX NSCLC): > 100 µM
TGI (CCRF-CEM leukemia): > 100 µM
TGI (A498 renal): > 100 µM
TGI (SNB-75 CNS): > 100 µM
TGI (NCI-H460 lung): > 100 µM
TGI (RXF 393 renal): > 100 µM
TGI (PC-3 prostate): > 100 µM
TGI (MDA-N): > 100 µM
TGI (NCI-H226 lung): > 100 µM

Cc1ccc2nc3c(C)cc(=O)cc-3sc2c1
TGI (EKVX NSCLC): 66.4 µM
TGI (CCRF-CEM leukemia): 33.1 µM
TGI (SNB-75 CNS): 69.2 µM
TGI (SNB-78 CNS): > 100 µM
TGI (NCI-H460 lung): 60.6 µM
TGI (NCI-H226 lung): > 100 µM

From PubChem BioAssay (NCI)
